Values of other authors, collected in US20080004230A1, “SAM Riboswitch and Uses Thereof” (priority 2006, published 2008).
Where two headings read alike, the source gives them in different places.

Columns and labels:
[1] = target: SAM-I riboswitch RNA (yitJ homolog from B. subtilis); conditions: read-out: binding affinity of the analog for the riboswitch RNA
SAM-I riboswitch = conditions: binding preference of the riboswitch, SAM relative to SAH

Nc1ncnc2c1ncn2[C@@H]1O[C@H](CSC[C@H](N)C(=O)O)[C@@H](O)[C@H]1O [SAC, S-adenosylcysteine]
Kd ([1]; analog with one less side chain methylene group): ~30 µM

Nc1ncnc2c1ncn2[C@@H]1O[C@H](CSCC[C@H](N)C(=O)O)[C@@H](O)[C@H]1O [SAH, S-adenosylhomocysteine]
Kd [1]: 0.4 µM

C[S+](CC[C@H](N)C(=O)O)C[C@H]1O[C@@H](n2cnc3c(N)ncnc32)[C@H](O)[C@@H]1O (stereo partly drawn) [SAM, S-adenosylmethionine]
preference for SAM over SAH (SAM-I riboswitch): 100 fold
